For 3 compounds, GI50 and TGI results are on record in PubChem BioAssay (NCI).

Several values for one entry are separate records, joined by “and”; a condition that tells them apart may be missing. Equal entries are not always repeated.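 In this assay, cells in 96-well plates receive the compound at five concentrations for 48 hours. Endpoints are linearly interpolated between the surrounding concentrations. The concentration for 50% growth inhibition is given as GI50. Definition used: TGI = concentration required for complete inhibition of growth.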

Some test systems named below: BT-549 breast; COLO 205 colon; HCC-2998 colon; HL-60(TB) leukemia; HS 578T breast; MCF7 breast; MDA-MB-231 breast; SF-295 CNS; SK-OV-3 ovarian; UACC-257 melanoma.
Assay in all cases: NCI-60 cell line screen, 48 h

For `CCN(Cc1cccc(F)c1)c1ccc(CO)c(Cl)c1`, the GI50 in the test on BT-549 breast is 11 µM; with COLO 205 colon, 1.57 µM; in the test with HCC-2998 colon it was 10.7 µM; in the test on HL-60(TB) leukemia, 19.6 µM; in the test with HS 578T breast, 19.5 µM; in the test on MCF7 breast, 0.216 µM. Besides, the GI50 in the test with MDA-MB-231 breast was 19 µM; in the test on SF-295 CNS, 1.21 µM; with SK-OV-3 ovarian, 6.68 µM; in the test with UACC-257 melanoma, 0.114 µM. The TGI in the test on BT-549 breast is 28.3 µM; with COLO 205 colon it was 4.85 µM; with HCC-2998 colon, 35.5 µM; in the test on HL-60(TB) leukemia it was more than 69.8 µM; in the test on HS 578T breast, 74.4 µM; with MCF7 breast, 17.8 µM. The TGI in the test on MDA-MB-231 breast is more than 55.3 µM; in the test on SF-295 CNS, more than 45.3 µM; in the test with SK-OV-3 ovarian, 36.3 µM; with UACC-257 melanoma, 0.344 µM.

Regarding `CC(=O)OCC1OC(n2c(-c3ccc(Cl)cc3)ccc(C#N)c2=S)C(OC(C)=O)C(OC(C)=O)C1OC(C)=O` (stereo unspecified), the GI50 is 15.9 µM and 35 µM with BT-549 breast; > 100 µM and 49.5 µM in the test on COLO 205 colon; 5.34 µM and 23.8 µM with HS 578T breast; 10.2 µM and 42.9 µM with MDA-MB-231 breast; 13.8 µM and > 100 µM with SF-295 CNS; 16.4 µM and 47.9 µM in the test with SK-OV-3 ovarian. Further, the TGI with BT-549 breast is 38.9 µM and > 100 µM; in the test on COLO 205 colon, more than 100 µM; in the test with HCC-2998 colon it was more than 100 µM; with HL-60(TB) leukemia it was more than 100 µM; in the test with HS 578T breast it was 67.3 µM and > 100 µM; in the test with MCF7 breast, more than 100 µM. Moreover, the TGI with MDA-MB-231 breast is 47.1 µM and > 100 µM; in the test on SF-295 CNS it was 35 µM and > 100 µM; with SK-OV-3 ovarian it was 44.9 µM and > 100 µM; with UACC-257 melanoma, more than 100 µM.

`O=S(=O)(Nc1ccccc1Cl)c1ccc(-c2cnc(C3CC3)o2)cc1`: the GI50 was 2.12 µM with BT-549 breast; 0.489 µM with COLO 205 colon; 2.54 µM in the test with HCC-2998 colon; 0.274 µM in the test on HL-60(TB) leukemia; 0.346 µM in the test with HS 578T breast; 0.284 µM in the test with MCF7 breast. Further, the GI50 in the test with MDA-MB-231 breast was 1.92 µM; with SF-295 CNS, 0.438 µM; with SK-OV-3 ovarian, 1.23 µM; in the test on UACC-257 melanoma, 19.2 µM. Further, the TGI with BT-549 breast is 69.3 µM; in the test on COLO 205 colon it was 5.58 µM; in the test on HCC-2998 colon it was 33.3 µM; in the test on HL-60(TB) leukemia, 0.886 µM; with HS 578T breast, more than 94.9 µM; in the test with MCF7 breast it was more than 100 µM. The TGI is 84.9 µM in the test on MDA-MB-231 breast, 15.3 µM in the test on SF-295 CNS, more than 67.7 µM in the test with SK-OV-3 ovarian and 75 µM in the test on UACC-257 melanoma.
